Assay results taken from patent US10800791B2, “Triazole ACC inhibitors and uses thereof” (Gilead Apollo, LLC, priority 2015, dated 2020).
Values after ≈ are worked out from the molar mass of the structure shown. Read-outs that look alike come from different tables or passages of the source.

Experiments:
Septoria tritici (St) = test: Growth inhibition assay of fungal pathogens, St; assay type: cell-based; conditions: Zymoseptoria tritici, 48 h
How it was run: (§1)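 Inhibition percentages reflect 48 h OD600 and visual scores relative to a 2% DMSO control. Test concentrations were 50, 10, 2 ppm or 2, 0.4, 0.08 ppm final, applied to spores in 17% V8 medium.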

[1] = tested on: Collectotrichum graminicola (Cg); test: Growth inhibition assay of fungal pathogens, Cg; assay type: cell-based; conditions: 48 h
How it was run: as §1

fungal (fACC2) = fungal (fACC2) (UniProt Q00955); conditions: read-out: fACC2 (in vitro ACC2 Inhibition Assay, IC50), ADP-Glo, 5 nM ACC2, 20 μM ATP, 20 μM acetyl-CoA
Chain of fungal (fACC2) (Q00955 whole entry): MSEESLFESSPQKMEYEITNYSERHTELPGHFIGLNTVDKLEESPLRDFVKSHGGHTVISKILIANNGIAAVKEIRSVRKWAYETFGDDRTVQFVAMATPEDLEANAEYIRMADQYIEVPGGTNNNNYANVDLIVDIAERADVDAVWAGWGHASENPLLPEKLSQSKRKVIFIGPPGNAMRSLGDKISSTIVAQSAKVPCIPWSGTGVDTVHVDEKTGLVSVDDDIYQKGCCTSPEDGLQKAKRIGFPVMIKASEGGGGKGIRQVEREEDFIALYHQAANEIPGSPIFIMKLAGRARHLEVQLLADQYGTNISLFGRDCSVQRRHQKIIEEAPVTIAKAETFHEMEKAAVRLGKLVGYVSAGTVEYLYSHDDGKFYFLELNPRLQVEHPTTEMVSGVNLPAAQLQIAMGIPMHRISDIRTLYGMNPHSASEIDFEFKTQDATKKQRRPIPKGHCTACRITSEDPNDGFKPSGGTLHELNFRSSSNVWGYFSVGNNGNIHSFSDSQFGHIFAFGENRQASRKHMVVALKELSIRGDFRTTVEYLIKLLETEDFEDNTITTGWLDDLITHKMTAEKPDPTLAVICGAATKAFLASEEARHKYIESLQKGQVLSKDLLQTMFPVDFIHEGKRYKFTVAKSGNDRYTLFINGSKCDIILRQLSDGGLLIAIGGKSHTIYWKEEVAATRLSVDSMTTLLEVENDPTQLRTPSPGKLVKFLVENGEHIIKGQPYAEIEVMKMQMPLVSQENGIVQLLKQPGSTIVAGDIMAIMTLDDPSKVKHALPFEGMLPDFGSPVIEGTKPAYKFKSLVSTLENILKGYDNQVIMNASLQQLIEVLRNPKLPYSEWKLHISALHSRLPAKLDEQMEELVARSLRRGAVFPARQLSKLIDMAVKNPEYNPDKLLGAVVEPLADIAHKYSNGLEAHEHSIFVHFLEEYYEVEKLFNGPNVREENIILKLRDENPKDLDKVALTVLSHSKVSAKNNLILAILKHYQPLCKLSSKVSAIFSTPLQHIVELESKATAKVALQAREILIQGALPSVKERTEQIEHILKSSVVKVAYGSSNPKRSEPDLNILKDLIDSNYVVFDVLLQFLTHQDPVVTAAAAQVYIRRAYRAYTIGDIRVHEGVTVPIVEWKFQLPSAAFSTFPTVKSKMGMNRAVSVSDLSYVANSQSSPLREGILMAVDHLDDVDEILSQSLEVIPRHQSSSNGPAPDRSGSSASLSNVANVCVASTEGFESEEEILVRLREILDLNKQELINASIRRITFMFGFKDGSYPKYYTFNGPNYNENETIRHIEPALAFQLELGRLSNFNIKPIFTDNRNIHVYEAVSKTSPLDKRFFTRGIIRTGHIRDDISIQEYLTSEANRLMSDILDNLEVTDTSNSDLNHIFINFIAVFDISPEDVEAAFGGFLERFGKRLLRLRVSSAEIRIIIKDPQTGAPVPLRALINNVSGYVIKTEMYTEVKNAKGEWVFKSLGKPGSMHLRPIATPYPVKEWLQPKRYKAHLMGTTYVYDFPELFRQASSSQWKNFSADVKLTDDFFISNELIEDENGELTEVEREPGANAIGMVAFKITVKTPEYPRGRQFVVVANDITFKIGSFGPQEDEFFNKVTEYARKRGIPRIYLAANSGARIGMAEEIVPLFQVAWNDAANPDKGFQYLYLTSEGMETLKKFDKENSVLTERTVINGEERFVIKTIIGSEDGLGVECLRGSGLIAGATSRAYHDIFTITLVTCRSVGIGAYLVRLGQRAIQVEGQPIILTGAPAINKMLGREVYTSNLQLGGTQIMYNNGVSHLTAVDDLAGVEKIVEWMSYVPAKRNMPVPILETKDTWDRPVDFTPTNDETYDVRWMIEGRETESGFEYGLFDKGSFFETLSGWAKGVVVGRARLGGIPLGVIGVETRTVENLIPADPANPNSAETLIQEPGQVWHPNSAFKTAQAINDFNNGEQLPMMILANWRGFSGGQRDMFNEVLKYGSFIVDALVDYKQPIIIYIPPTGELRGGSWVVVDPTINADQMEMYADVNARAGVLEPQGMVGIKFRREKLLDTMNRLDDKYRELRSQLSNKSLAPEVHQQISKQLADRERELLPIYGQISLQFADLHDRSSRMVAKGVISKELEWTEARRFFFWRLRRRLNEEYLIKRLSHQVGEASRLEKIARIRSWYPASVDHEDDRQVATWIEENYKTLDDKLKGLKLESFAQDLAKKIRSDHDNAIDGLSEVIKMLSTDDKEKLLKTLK

C. albicans = test: Antifungal Activity Assay (broth microtiter MIC), C. albicans; assay type: cell-based, Candida albicans; conditions: Candida albicans, ATCC90028, 48 h
How it was run: (§2)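 Susceptibility was determined by CLSI M27-A3 broth microdilution in RPMI 1640 buffered with MOPS. Growth inhibition was scored visually after 48 h.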

human (hACC2) = human (hACC2) (Homo sapiens, UniProt O00763); test: In vitro ACC inhibition assay (ADP-Glo), hACC2; assay type: biochemical; conditions: 5 nM ACC2, 20 μM ATP, 20 μM acetyl-CoA
Chain of human (hACC2) (O00763 whole entry): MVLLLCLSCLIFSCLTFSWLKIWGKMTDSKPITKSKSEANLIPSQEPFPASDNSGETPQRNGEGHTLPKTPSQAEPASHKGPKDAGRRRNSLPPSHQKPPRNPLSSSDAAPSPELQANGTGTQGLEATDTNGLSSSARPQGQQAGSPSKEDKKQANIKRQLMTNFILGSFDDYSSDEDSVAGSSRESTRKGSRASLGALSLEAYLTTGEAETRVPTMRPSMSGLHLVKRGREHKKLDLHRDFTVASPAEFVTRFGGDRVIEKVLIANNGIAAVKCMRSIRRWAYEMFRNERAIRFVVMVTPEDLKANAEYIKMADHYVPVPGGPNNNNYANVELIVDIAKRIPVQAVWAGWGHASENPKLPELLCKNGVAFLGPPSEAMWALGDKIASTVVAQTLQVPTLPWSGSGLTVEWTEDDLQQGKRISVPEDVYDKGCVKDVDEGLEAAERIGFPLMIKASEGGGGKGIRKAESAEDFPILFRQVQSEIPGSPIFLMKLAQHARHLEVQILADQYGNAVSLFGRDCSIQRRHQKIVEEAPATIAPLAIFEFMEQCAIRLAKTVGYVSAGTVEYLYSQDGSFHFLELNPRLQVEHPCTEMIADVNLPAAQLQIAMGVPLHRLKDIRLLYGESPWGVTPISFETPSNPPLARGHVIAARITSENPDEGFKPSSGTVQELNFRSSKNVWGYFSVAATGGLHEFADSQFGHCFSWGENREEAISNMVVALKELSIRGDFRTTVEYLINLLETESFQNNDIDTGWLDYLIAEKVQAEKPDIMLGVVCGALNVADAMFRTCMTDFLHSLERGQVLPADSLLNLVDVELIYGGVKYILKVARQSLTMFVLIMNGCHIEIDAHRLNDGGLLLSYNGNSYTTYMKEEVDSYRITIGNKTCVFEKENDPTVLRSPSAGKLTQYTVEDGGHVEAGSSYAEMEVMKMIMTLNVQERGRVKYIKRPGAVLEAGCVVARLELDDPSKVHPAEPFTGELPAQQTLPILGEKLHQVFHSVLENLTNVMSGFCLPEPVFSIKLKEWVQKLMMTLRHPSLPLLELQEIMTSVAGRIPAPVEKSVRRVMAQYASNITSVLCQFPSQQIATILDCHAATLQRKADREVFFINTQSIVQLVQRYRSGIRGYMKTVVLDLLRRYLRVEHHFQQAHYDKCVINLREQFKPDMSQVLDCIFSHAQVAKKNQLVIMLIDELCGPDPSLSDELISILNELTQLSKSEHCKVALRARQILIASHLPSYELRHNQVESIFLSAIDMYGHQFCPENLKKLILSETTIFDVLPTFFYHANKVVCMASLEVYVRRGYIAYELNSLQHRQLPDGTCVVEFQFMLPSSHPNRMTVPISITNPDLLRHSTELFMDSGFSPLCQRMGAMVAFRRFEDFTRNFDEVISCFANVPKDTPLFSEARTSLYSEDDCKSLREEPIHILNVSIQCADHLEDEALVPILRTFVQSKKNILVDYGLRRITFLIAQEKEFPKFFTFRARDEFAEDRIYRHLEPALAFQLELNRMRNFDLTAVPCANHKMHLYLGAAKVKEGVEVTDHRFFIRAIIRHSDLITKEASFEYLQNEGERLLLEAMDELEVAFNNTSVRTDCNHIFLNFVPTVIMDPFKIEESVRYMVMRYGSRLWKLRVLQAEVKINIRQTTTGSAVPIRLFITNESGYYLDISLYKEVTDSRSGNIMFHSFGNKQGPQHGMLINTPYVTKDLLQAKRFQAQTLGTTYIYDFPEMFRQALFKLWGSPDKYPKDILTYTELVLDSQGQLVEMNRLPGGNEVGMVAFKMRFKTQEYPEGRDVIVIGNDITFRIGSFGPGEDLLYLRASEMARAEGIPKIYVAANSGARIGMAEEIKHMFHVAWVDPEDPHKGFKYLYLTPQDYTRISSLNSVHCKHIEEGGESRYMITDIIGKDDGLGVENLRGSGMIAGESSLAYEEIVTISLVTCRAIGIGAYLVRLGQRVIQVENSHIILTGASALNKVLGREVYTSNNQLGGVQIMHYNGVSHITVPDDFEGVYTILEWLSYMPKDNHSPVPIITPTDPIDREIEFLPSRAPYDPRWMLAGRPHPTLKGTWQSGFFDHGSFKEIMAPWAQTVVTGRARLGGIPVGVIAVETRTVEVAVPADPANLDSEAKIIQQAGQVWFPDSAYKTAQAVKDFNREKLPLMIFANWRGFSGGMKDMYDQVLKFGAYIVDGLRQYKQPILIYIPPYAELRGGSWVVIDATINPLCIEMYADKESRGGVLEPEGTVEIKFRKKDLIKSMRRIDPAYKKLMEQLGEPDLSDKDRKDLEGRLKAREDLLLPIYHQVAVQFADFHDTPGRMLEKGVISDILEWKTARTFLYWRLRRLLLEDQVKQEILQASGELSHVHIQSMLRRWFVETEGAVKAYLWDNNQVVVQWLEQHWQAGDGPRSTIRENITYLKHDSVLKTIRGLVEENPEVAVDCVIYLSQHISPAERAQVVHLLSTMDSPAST
Method: The detailed procedure is as follows. […] 10 μL ADP glo reagent was added. […] 20 μL kinase detection reagent was added.

Rhizoctonia solani (Rs) = test: Growth inhibition assay of fungal pathogens, Rs; assay type: cell-based; conditions: 48 h
Diplodia maydis (Dm) = test: Growth inhibition assay of fungal pathogens, Dm; assay type: cell-based; conditions: Stenocarpella maydis, 48 h
How it was run: as §1

[2] = tested on: Phytophthora capsici (Pc); test: Growth inhibition assay of fungal pathogens, Pc; assay type: cell-based; conditions: 48 h
How it was run: as §1

Botrtyis cinerea (Bc) = test: Growth inhibition assay of fungal pathogens, Bc; assay type: cell-based; conditions: 48 h
How it was run: as §1

C. parapsilosis = test: Antifungal Activity Assay (broth microtiter MIC), C. parapsilosis; assay type: cell-based, Candida parapsilosis; conditions: Lodderomyces parapsilosis, ATCC22019, 48 h
How it was run: as §2

[3] = Septoria tritici, growth inhibition at 48 hours vs 2% DMSO control, read-out: Concentration at 90% Inhibition St
[4] = Septoria tritici, growth inhibition vs 2% DMSO control at 48 hours, read-out: Concentration at 90% Inhibition St
[5] = Collectotrichum graminicola, growth inhibition at 48 hours vs 2% DMSO control, read-out: Concentration at 90% Inhibition Cg
[6] = Collectotrichum graminicola, growth inhibition vs 2% DMSO control at 48 hours, read-out: Concentration at 90% Inhibition Cg
[7] = Table 3a, ATCC 90028, 3 replicates, MIC recorded at 48 h, read-out: MIC, C. albicans ATCC 90028
[8] = Table 3b (additional results), ATCC 90028, 3 replicates, MIC recorded at 48 h, read-out: MIC, C. albicans ATCC 90028
[9] = mycelial plugs, growth inhibition at 48 hours vs 2% DMSO control, read-out: Concentration at 90% Inhibition Rs
[10] = mycelial plugs, growth inhibition vs 2% DMSO control at 48 hours, read-out: Concentration at 90% Inhibition Rs
[11] = Diplodia maydis, growth inhibition at 48 hours vs 2% DMSO control, read-out: Concentration at 90% Inhibition Dm
[12] = Diplodia maydis, growth inhibition vs 2% DMSO control at 48 hours, read-out: Concentration at 90% Inhibition Dm
[13] = growth inhibition at 48 hours vs 2% DMSO control, read-out: Concentration at 90% Inhibition Pc
[14] = growth inhibition vs 2% DMSO control at 48 hours, read-out: Concentration at 90% Inhibition Pc
[15] = Botrtyis cinerea, growth inhibition at 48 hours vs 2% DMSO control, read-out: Concentration at 90% Inhibition Bc
[16] = Botrtyis cinerea, growth inhibition vs 2% DMSO control at 48 hours, read-out: Concentration at 90% Inhibition Bc
[17] = Table 3a, ATCC 22019, 3 replicates, MIC recorded at 48 h, read-out: MIC, C. parapsilosis ATCC 22019
[18] = Table 3b (additional results), ATCC 22019, 3 replicates, MIC recorded at 48 h, read-out: MIC, C. parapsilosis ATCC 22019

| Structure (SMILES) | IC90 (Septoria tritici (St); [3]) [µg/mL] | IC90 (Septoria tritici (St); [4]) [µg/mL] | IC90 [1, 5] [µg/mL] | IC90 [1, 6] [µg/mL] | IC50 (fungal (fACC2); Table 2a) [nM] | IC50 (fungal (fACC2); Table 2b, additional results) [nM] | MIC (C. albicans; [7]) [µg/mL] | MIC (C. albicans; [8]) [µg/mL] | IC50 (human (hACC2); Table 2a) [nM] | IC50 (human (hACC2); Table 2b, additional results) [nM] | IC90 (Rhizoctonia solani (Rs); [9]) [µg/mL] | IC90 (Rhizoctonia solani (Rs); [10]) [µg/mL] | IC90 (Diplodia maydis (Dm); [11]) [µg/mL] | IC90 (Diplodia maydis (Dm); [12]) [µg/mL] | IC90 [2, 13] [µg/mL] | IC90 [2, 14] [µg/mL] | IC90 (Botrtyis cinerea (Bc); [15]) [µg/mL] | IC90 (Botrtyis cinerea (Bc); [16]) [µg/mL] | MIC (C. parapsilosis; [17]) [µg/mL] | MIC (C. parapsilosis; [18]) [µg/mL] | also measured |
| --- | --- | --- | --- | --- | --- | --- | --- | --- | --- | --- | --- | --- | --- | --- | --- | --- | --- | --- | --- | --- | --- |
| COCCO[C@@H](Cn1c(=O)n(C(C)C(=O)N2CCCC2)c(=O)c2c(C)c(-n3nccn3)sc21)c1cc(F)ccc1OC (stereo partly drawn) [Compound I-64, 1-((R)-2-(5-fluoro-2-methoxyphenyl)-2-(2-methoxy-ethoxy)ethyl)-5-methyl-3-(1-oxo-1-(pyrrolidin-1-yl)propan-2-yl)-6-(2H-1,2,3-triazol-2-yl)thieno[2,3-d]pyrimidine-2,4(1H,3H)-dione] | > 50 | > 50 | 10 (≈ 16.6 µM) | > 50 | 1 to 5 | 1 to 5 | 2.1 to 4 (≈ 3.5 to 6.66 µM) | 2.01 to 4 (≈ 3.35 to 6.66 µM) | 10 to 40 | 10 to 40 | 2 (≈ 3.33 µM) | 2 (≈ 3.33 µM) | 10 (≈ 16.6 µM) | > 50 | > 50 | > 50 | 2 (≈ 3.33 µM) | 2 (≈ 3.33 µM) | 2.1 to 4 (≈ 3.5 to 6.66 µM) | 1.01 to 2 (≈ 1.68 to 3.33 µM) | – |
| COCCO[C@@H](Cn1c(=O)n([C@H](C)C(=O)N2CCCC2)c(=O)c2c(C)c(-n3nccn3)sc21)c1cc(F)ccc1OC [Compound I-65, 1-((R)-2-(5-fluoro-2-methoxyphenyl)-2-(2-methoxy-ethoxy)ethyl)-5-methyl-3-((R)-1-oxo-1-(pyrrolidin-1-yl)propan-2-yl)-6-(2H-1,2,3-triazol-2-yl)thieno[2,3-d]pyrimidine-2,4(1H,3H)-dione] | > 50 | > 50 | 10 (≈ 16.6 µM) | > 50 | 0.4 to 1 | 0.3 to 1 | 2.1 to 4 (≈ 3.5 to 6.66 µM) | 2.01 to 4 (≈ 3.35 to 6.66 µM) | 10 to 40 | 10 to 40 | 2 (≈ 3.33 µM) | 2 (≈ 3.33 µM) | 10 (≈ 16.6 µM) | > 50 | > 50 | > 50 | 2 (≈ 3.33 µM) | 2 (≈ 3.33 µM) | 2.1 to 4 (≈ 3.5 to 6.66 µM) | 1.01 to 2 (≈ 1.68 to 3.33 µM) | – |
| COCCCO[C@@H](Cn1c(=O)n(C(C)(C)C(=O)N2CCCC2)c(=O)c2c(C)c(-n3nccn3)sc21)c1cc(F)ccc1OC [Compound I-68, (R)-1-(2-(5-fluoro-2-methoxyphenyl)-2-(3-methoxy-propoxy)ethyl)-5-methyl-3-(2-methyl-1-oxo-1-(pyrrolidin-1-yl)propan-2-yl)-6-(2H-1,2,3-triazol-2-yl)thieno[2,3-d]pyrimidine-2,4(1H,3H)-dione] | > 50 | > 50 | 2 (≈ 3.18 µM) | 2 (≈ 3.18 µM) | 1 to 5 | 1 to 5 | – | 2.01 to 4 (≈ 3.2 to 6.36 µM) | 5 to 10 | 5 to 10 | 0.4 (≈ 0.636 µM) | 0.4 (≈ 0.636 µM) | 2 (≈ 3.18 µM) | 2 (≈ 3.18 µM) | > 50 | > 50 | 2 (≈ 3.18 µM) | 2 (≈ 3.18 µM) | – | 1.01 to 2 (≈ 1.61 to 3.18 µM) | – |
| COCCCO[C@@H](Cn1c(=O)n(C(C)(C)C(=O)NC(C)C)c(=O)c2c(C)c(-n3nccn3)sc21)c1cc(F)ccc1OC [Compound I-69, (R)-2-(1-(2-(5-fluoro-2-methoxyphenyl)-2-(3-methoxy-propoxy)ethyl)-5-methyl-2,4-dioxo-6-(2H-1,2,3-triazol-2-yl)-1,4-dihydrothieno[2,3-d]pyrimidin-3(2H)-yl)-N-isopropyl-2-methylpropanamide] | – | – | – | – | 0.4 to 1 | 0.3 to 1 | – | – | 5 to 10 | 5 to 10 | – | – | – | – | – | – | – | – | – | – | IC90 (Septoria tritici (St); read-out: Concentration at 90% Inhibition St, Septoria tritici, growth inhibition at 48 hours vs 2% DMSO control): 10 µg/mL (≈ 16.2 µM); IC90 (Septoria tritici (St); read-out: Concentration at 90% Inhibition St, Septoria tritici, growth inhibition vs 2% DMSO control at 48 hours): > 50 µg/mL; IC90 ([1]; read-out: Concentration at 90% Inhibition Cg, Collectotrichum graminicola, growth inhibition at 48 hours vs 2% DMSO control): 0.4 µg/mL (≈ 0.649 µM); IC90 ([1]; read-out: Concentration at 90% Inhibition Cg, Collectotrichum graminicola, growth inhibition vs 2% DMSO control at 48 hours): 0.4 µg/mL (≈ 0.649 µM); MIC (C. albicans; read-out: MIC, C. albicans ATCC 90028, Table 3b (additional results), 3 replicates, MIC recorded at 48 h): 1.01 to 2 µg/mL (≈ 1.64 to 3.24 µM); IC90 (Rhizoctonia solani (Rs); read-out: Concentration at 90% Inhibition Rs, Rhizoctonia solani, mycelial plugs, growth inhibition at 48 hours vs 2% DMSO control): 0.4 µg/mL (≈ 0.649 µM); IC90 (Rhizoctonia solani (Rs); read-out: Concentration at 90% Inhibition Rs, Rhizoctonia solani, mycelial plugs, growth inhibition vs 2% DMSO control at 48 hours): 0.4 µg/mL (≈ 0.649 µM); IC90 (Diplodia maydis (Dm); read-out: Concentration at 90% Inhibition Dm, Diplodia maydis, growth inhibition at 48 hours vs 2% DMSO control): 0.08 µg/mL (≈ 0.13 µM); IC90 (Diplodia maydis (Dm); read-out: Concentration at 90% Inhibition Dm, Diplodia maydis, growth inhibition vs 2% DMSO control at 48 hours): 0.08 µg/mL (≈ 0.13 µM); IC90 ([2]; read-out: Concentration at 90% Inhibition Pc, Phytophthora capsici, growth inhibition at 48 hours vs 2% DMSO control): > 50 µg/mL; IC90 ([2]; read-out: Concentration at 90% Inhibition Pc, Phytophthora capsici, growth inhibition vs 2% DMSO control at 48 hours): > 50 µg/mL; IC90 (Botrtyis cinerea (Bc); read-out: Concentration at 90% Inhibition Bc, Botrtyis cinerea, growth inhibition at 48 hours vs 2% DMSO control): 0.4 µg/mL (≈ 0.649 µM); IC90 (Botrtyis cinerea (Bc); read-out: Concentration at 90% Inhibition Bc, Botrtyis cinerea, growth inhibition vs 2% DMSO control at 48 hours): 0.4 µg/mL (≈ 0.649 µM); MIC (C. parapsilosis; read-out: MIC, C. parapsilosis ATCC 22019, Table 3b (additional results), 3 replicates, MIC recorded at 48 h): 0.25 to 1 µg/mL (≈ 0.405 to 1.62 µM) |
